Data on one substance can be found in patent publication US7692012B2, “Vanadium compounds as inhibitors of phosphatases” (Imperial College Innovations Limited, priority 2003, dated 2010).

The assay concerns the target T1, PTEN (Homo sapiens, UniProt P60484).
T1 construct: GST (N); made in house; host or cells: Escherichia coli DH5 alpha
As to the kind of experiment: Malachite green phosphate release assay with PI(3,4,5)P3. The conditions noted are these: head says published data; same values as the applicant's FIG. 1 study; read-out: PTEN Published data In vitro enzyme assay confirmed by in vivo data. Type of assay: biochemical. How it is done: The coding region of the DNA sequence of human PTEN was cloned into a pGEX-4T2 expression vector (Pharmacia). Protein expression was induced overnight in the Escherichia coli DH5[…] strain using 100 μM IPTG at 18 C. GST-fusion proteins were purified according to the manufacturer's manual using glutathione sepharose 4B (Pharmacia). Protein integrity and specificity were confirmed on a Western Blot using GST antibody (Novagen).
Enzyme activity of recombinant PTEN was measured with a malachite green dye based phosphate release assay (No 230, No 83). The standard assay conditions were 200 mM Tris pH 7.4, 50 ng/μl BSA, and 15 ng/μl PTEN. The synthetic lipid PI(3,4,5)P3dC16 (Cell Signals) was used as a substrate for PTEN. The lipid was dissolved in methanol/H2O and stored at −20 C. Prior to the use in these PIPase experiments, an appropriate amount of lipid was dried down and resuspended in 1% Octylglycoside (Sigma). After 10 min of sonication lipid samples were ready to be added to the enzyme assay. All assays were started by adding the enzyme into the pre-heated buffer solution, containing PI(3,4,5)P3dC16. Linear PIPase reactions were performed at 30 C for 30 min in an incubation chamber. In order to stop the enzyme reaction, 0.7 volume of colour reagent (2.3 mg/ml malachite green in 3.6 M HCl and 17 mM ammonium molybdate) was added to the enzyme solution. The mixture was allowed to develop for 20 min and the absorbance at 625 nm was measured. For all inhibitor studies inhibitor concentrations from 0.1 nM up to 500 nM were pre-incubated with PTEN and the enzyme assays were started by adding 150 μM sonicated lipid. To normalize the phosphate release a phosphate standard curve was used. All experiments were repeated in tripletts. Calculations for IC50 values were performed using GraphPad Prism.

T1 sequence (P60484 whole entry): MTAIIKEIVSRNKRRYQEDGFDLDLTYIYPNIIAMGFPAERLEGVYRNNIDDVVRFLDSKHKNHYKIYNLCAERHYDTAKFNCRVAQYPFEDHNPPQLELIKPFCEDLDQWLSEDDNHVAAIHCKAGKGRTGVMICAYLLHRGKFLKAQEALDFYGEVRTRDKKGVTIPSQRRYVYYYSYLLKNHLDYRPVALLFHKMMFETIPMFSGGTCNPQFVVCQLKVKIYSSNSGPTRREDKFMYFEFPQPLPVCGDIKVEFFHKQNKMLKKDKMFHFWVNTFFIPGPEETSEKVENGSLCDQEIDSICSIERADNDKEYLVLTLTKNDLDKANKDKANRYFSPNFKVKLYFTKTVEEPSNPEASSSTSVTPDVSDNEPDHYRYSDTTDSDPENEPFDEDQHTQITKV

Take “potassium bisperoxo (piconlinate) oxovanadate [bpV(pic)]”: the IC50 is 0.031 ± 0.0017 µM.
